Source: US20100297079A1, “COMPOUNDS, COMPOSITIONS AND METHODS FOR TREATING VIRAL INFECTION” (Chimerix, Inc., priority 2009, published 2010)
Where two headings read alike, the source gives them in different places.

Experiments:
Assay type in all cases: cell-based
HCV = assay: Anti-HCV activity (HCV replicon assay); settings: Hepatitis C virus
Protocol: (§1) Antiviral activity against HCV is determined using the stably-expressing HCV replicon cell line, AVA5 (sub-genomic (CON1), genotype 1b) (Okuse, et al., Antivir. Res. 65:23 (2005); Korba, et al., Antivir. Res. 77:56 (2008); Blight, et al., Science 290:1972 (2000)). Reductions in intracellular HCV RNA are determined with respect to a cellular control (B-actin) by blot hybridization. Cytotoxicity is assessed by neutral red dye uptake in parallel plates.
Efficacy and cell cytotoxicity values (EC50, EC90 and CC50) are calculated by linear regression analysis (MS EXCEL®, QuattroPro®) (Korba & Gerin, Antivir. Res. 19:55 (1992); Okuse, et al., Antivir. Res. 65:23 (2005)). The therapeutic index is calculated as CC50/EC50. Recombinant human interferon 2b (PBL laboratories, Inc.) is included as a positive control. Activity is subsequently tested against additional genotypes (e.g., genotype 1a) using the format described for the primary assay. In addition to antiviral assays described herein, several other types of anti-HCV activities can also be assessed using methods known to one of ordinary skill in the art. […]

[1] = Cytotoxicity (CC50) in parallel plates of the anti-HCV assay; settings: human
Protocol: as §1
Efficacy and cell cytotoxicity values (EC50, EC90 and CC50) are calculated by linear regression analysis (MS EXCEL®, QuattroPro®) (Korba & Gerin, Antivir. Res. 19:55 (1992); Okuse, et al., Antivir. Res. 65:23 (2005)). The therapeutic index is calculated as CC50/EC50. Recombinant human interferon 2b (PBL laboratories, Inc.) is included as a positive control. Activity is subsequently tested against additional genotypes (e.g., genotype 1a) using the format described for the primary assay. In addition to antiviral assays described herein, several other types of anti-HCV activities can also be assessed using methods known to one of ordinary skill in the art.

MT4 Cell Toxicity Assay = settings: human
Protocol: Cells used: MT4 cells were obtained from NIH AIDS research & Reference Reagent Program. Cells were used up to passage 30.
Toxicity assay using MTS: 5,000 MT4 cells were plated per well in a 96-well plate. Compounds were diluted in DMSO and further diluted with medium before adding to the plated cells. Plates were then incubated in a CO2 incubator at 37° C. for 6 days.
Cell viability was estimated using MTS, a tetrazolium compound [3-(4,5-dimethylthiazol-2-yl)-5-(3-carboxymethoxyphenyl)-2-(4-sulfophenyl)-2H-tetrazolium], which is converted to a soluble formazan by mitochondrial dehydrogenases in the presence of an electron coupling reagent (phenazine methosulfate; PMS). The formazan product has an absorption maximum around 490 nm. Forty microliters of MTS reagent [MTS (2 mg/ml) and PMS (0.92 mg/ml) mixed at a ratio of 20:1 just before use] was added to each well and plates incubated for 4 hrs at 37° C. Absorbance was read at 490 nm using a Synergy 2 plate reader (BioTek). Data analysis was carried out using the BioTek Gen5 software using a 4-parameter curve fitting function to determine CC50 values.

HepG2 cells = assay: Mitochondrial Biogenesis Assay; settings: 7 days, ratio of Complex IV to Frataxin
Protocol: Cells used: HepG2 cells were obtained from ATCC. Cells are used up to 25 passages from the ATCC freeze.
Mitochondria Biogenesis Assay using HepG2 cells: 150,000 HepG2 cells were plated per well in a 6-well plate. Compounds were diluted in DMSO and further diluted in the plated cells so as to give a top concentration of 50 μM. Five four-fold dilutions were tested in this assay format. Plates were then incubated in a CO2 incubator at 37° C. for 7 days. Medium containing fresh compound was changed on day 3 and 6 of the assay. Cells were harvested on day 7 of the assay.
On day 7, cells were rinsed with 1×DPBS three times and scraped off into 1×DPBS and held on ice. Whole cell protein estimation was determined to make sure that the cells are suspended at a protein concentration of 3-5 mg/ml.
Cells were lysed on ice by addition of 1:10 volume of diluted detergent (MitoSciences) so as to have a final detergent concentration of 2%. Cells were held on ice for 1 hr and then centrifuged at ˜20K×g for 20 min. The supernatant fraction was used for determining solubilized Frataxin and Complex IV using an ELISA kit from MitoSciences. The ratio of Complex IV to Frataxin was used to determine mitochondrial toxicity. DMSO controls were run to determine ratio of Frataxin and Complex IV in control cells. ddC was run as a positive control in the assay.

[2] = anti-HCV activity, read-out: EC50
[3] = AVA5 HCV replicon cells (sub-genomic CON1, genotype 1b)
[4] = MT4 cells, 6 days, MTS, read-out: MT-4 (TC50)

Compound | EC50 (HCV; [2]) [nM] | CC50 [1, 3] [nM] | CC50 at 6 days (MT4 Cell Toxicity Assay; MT-4 (TC50) (μM)) [µM] | Mitotoxicity (μM) (HepG2 cells) | EC50 (HCV) [nM] | CC50 [1] [nM] | CC50 at 6 days (MT4 Cell Toxicity Assay; [4]) [µM]
CC(C)=CCNc1ncnc2c1c(/C(N)=N\O)cn2[C@@H]1O[C@H](CO)[C@@H](O)[C@H]1O [Compound a] | < 100 | < 1000 | > 100 | * (up to 20 μM) | – | – | –
CCCCCCCCCCCCCCCCOCCCOP(=O)(O)OC[C@H]1O[C@@H](n2cc(C#N)c3c(N)ncnc32)[C@H](O)[C@@H]1O [Compound b] | < 100 | < 1000 | < 1 | * (up to 20 μM) | – | – | –
C[C@@]1(F)[C@H](O)[C@@H](CO)O[C@H]1n1cc(Br)c2c(N)ncnc21 [Compound c] | – | 20000 to 100000 | – | – | – | – | –
C[C@]1(O)C(n2cc(C(N)=S)c3c(N)ncnc32)O[C@H](CO)[C@H]1O (stereo partly drawn) [Compound d] | 1000 to 5000 | – | 1 to 20 | * (up to 20 μM) | – | – | –
CNC(=O)c1csc(-c2cn([C@@H]3O[C@H](CO)[C@@H](O)[C@@]3(C)O)c3ncnc(N)c23)c1 [Compound e] | – | 20000 to 100000 | – | – | – | – | –
C[C@@]1(F)[C@H](O)[C@@H](CO)O[C@H]1n1cc(-c2cccs2)c2c(N)ncnc21 [Compound f] | > 5000 | – | – | * (up to 20 μM) | – | – | –
COC(=O)[C@H](C)NP(=O)(OC[C@H]1O[C@@H](n2cc(C(N)=S)c3c(N)ncnc32)[C@H](O)[C@@H]1O)Oc1ccccc1 (stereo partly drawn) [Compound g] | – | – | – | – | < 100 | < 1000 | < 1
CCCCCCCCCCCCCCCCOCCCOP(=O)(O)OC[C@H]1O[C@@H](n2cc(C(N)=S)c3c(N)ncnc32)[C@H](O)[C@@H]1O [Compound h] | < 100 | < 1000 | < 1 | – | – | – | –
C[C@@]1(O)[C@H](O)[C@@H](CO)O[C@H]1n1cc(C#N)c2c(N)ncnc21 [Compound j] | 100 to 1000 | – | 20 to 100 | ** (20-50 μM) | – | – | –
COC(=O)[C@H](C)NP(=O)(OC[C@H]1O[C@@H](n2cc(C(N)=S)c3c(N)ncnc32)[C@](C)(O)[C@@H]1O)Oc1ccccc1 (stereo partly drawn) [Compound k] | – | – | – | * (up to 20 μM) | 100 to 1000 | 1000 to 20000 | 20 to 100
[N-]=[N+]=N[C@H]1C(O)C(CO)OC1n1cc(C(N)=S)c2c(N)ncnc21 (stereo partly drawn) [Compound l] | 100 to 1000 | 1000 to 20000 | > 100 | *** (50-80 μM) | – | – | –
COC(=N)c1cn(CC2(F)COC(CO)C2O)c2ncnc(N)c12 (stereo not drawn) [Compound m] | > 5000 | – | 20 to 100 | – | – | – | –
CC(C)CCNc1ncnc2c1c(C(=N)NO)cn2[C@@H]1O[C@H](CO)[C@@H](O)[C@H]1O [Compound n] | 1000 to 5000 | 1000 to 20000 | > 100 | – | – | – | –
CNC(=O)c1csc(-c2cn([C@@H]3O[C@H](CO)[C@@H](O)[C@H]3O)c3ncnc(N)c23)c1 [Compound o] | 1000 to 5000 | 20000 to 100000 | – | – | – | – | –
NC(=S)c1cn(C2O[C@H](CO)[C@@H](O)[C@H]2O)c2ncnc(N)c12 (stereo partly drawn) [Compound p] | – | – | – | * (up to 20 μM) | < 100 | < 1000 | < 1
CCCCCCCCCCCCCCCCOCCCOP1(=O)OC[C@H]2O[C@@H](n3cc(C(N)=S)c4c(N)ncnc43)[C@H](O)[C@@H]2O1 (stereo partly drawn) [Compound q] | < 100 | 1000 to 20000 | < 1 | – | – | – | –
Nc1ncnc2c1c(Br)cn2[C@@H]1O[C@H](CO)[C@@H](O)[C@H]1O [Compound r] | 1000 to 5000 | – | 1 to 20 | – | – | – | –
